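The compound was tested at five concentrations on cells cultured in 96-well plates, with a 48-hour exposure period. Abbreviation: GI50, concentration required for 50% inhibition of growth.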 The source made the active and inactive calls. Rule as the data show it: active = GI50 up to about 1.1 µM and inactive = higher.

Among the test systems are MOLT-4; SR; U-251; SK-OV-3; SF-268; SF-295; MDA-N; SNB-19; K562; OVCAR-5; COLO 205; NCI-H522; A498; SN12C; HCT-15; NCI-H460; ACHN; T47D; HOP-92; MDA-MB-231.
Holding throughout (test): DTP human tumour cell line panel, 48 h

The term GI50 denotes the concentration at which growth is held to half of that of the control. Take `CN1C(=O)CC2(C)c3cc(O)ccc3N(C)C12` (centres undefined): the GI50 was 19.3 µM (inactive) in the assay with MOLT-4; 18.5 µM (inactive) in the assay on SR; 19.2 µM (inactive) with U-251; > 95.3 µM (inactive) in the assay on SK-OV-3; 27 µM (inactive) in the assay with SF-268; 29.8 µM (inactive) with SF-295. Besides, the GI50 with MDA-N is 17.6 µM (inactive); in the assay with SNB-19, 46.9 µM (inactive); in the assay with K562, 18.5 µM (inactive); in the assay with OVCAR-5, 42.5 µM (inactive); in the assay with COLO 205 it was 36.8 µM (inactive); with NCI-H522 it was 43.3 µM (inactive). Also, the GI50 in the assay on A498 is 43 µM (inactive); in the assay on SN12C, 15.5 µM (inactive); in the assay with HCT-15, 36 µM; with NCI-H460, 50.9 µM (inactive); in the assay on ACHN it was 63.2 µM (inactive); in the assay on T47D it was 31.8 µM (inactive). The GI50 in the assay with HOP-92 is 56.9 µM (inactive); in the assay on MDA-MB-231, 19.5 µM (inactive).
Regarding `COc1ccc(CC2C3=C(CCN2C(=O)C2CCC2)CC2(CC3)OCCO2)cc1O` (centres undefined), the GI50 in the assay on MOLT-4 was 37 µM (inactive); in the assay with SR, 10.5 µM (inactive); with U-251, 39.9 µM (inactive); with SK-OV-3, 30.5 µM (inactive); in the assay on SF-268, 35.2 µM (inactive); in the assay with SF-295, 20.5 µM (inactive). For the same compound, the GI50 was 12.1 µM (inactive) in the assay with MDA-N; 45.6 µM (inactive) in the assay with SNB-19; 22.6 µM (inactive) in the assay on K562; > 100 µM (inactive) in the assay with OVCAR-5; 22.8 µM (inactive) in the assay with COLO 205; 17.9 µM (inactive) in the assay on NCI-H522. For the same compound, the GI50 was 26.7 µM (inactive) in the assay on A498; 29.6 µM (inactive) in the assay with SN12C; 14.9 µM with HCT-15; 27.7 µM (inactive) with NCI-H460; 84.1 µM (inactive) in the assay with ACHN; 44.8 µM (inactive) with T47D. The GI50 with HOP-92 was 62.8 µM (inactive); in the assay with MDA-MB-231 it was 40.8 µM (inactive).
Regarding `CCOC(=O)c1cc(C)n(CN(CCO)Cn2nc(C(=O)OCC)cc2C)n1`, the GI50 is 31.8 µM (inactive) in the assay with MOLT-4; 28.6 µM (inactive) with SR; 35.3 µM (inactive) in the assay with U-251; > 100 µM (inactive) with SK-OV-3; 34.9 µM (inactive) with SF-268; > 100 µM (inactive) in the assay on SF-295. Further, the GI50 in the assay with MDA-N is 29.2 µM (inactive); in the assay on SNB-19, 52.4 µM (inactive); in the assay on K562, 26.9 µM (inactive); in the assay with OVCAR-5, 19.5 µM (inactive); in the assay on COLO 205, 20.5 µM (inactive); in the assay on NCI-H522 it was 22.6 µM (inactive). Moreover, the GI50 is > 100 µM (inactive) with A498; 27.4 µM (inactive) in the assay with SN12C; 21.5 µM in the assay with HCT-15; 66.5 µM (inactive) in the assay on NCI-H460; 22.8 µM (inactive) in the assay on ACHN; 24.5 µM (inactive) in the assay with T47D. For the same compound, the GI50 in the assay with HOP-92 is 24.8 µM (inactive); in the assay on MDA-MB-231 it was 27.9 µM (inactive).
`Cc1ccc(C2SCC(=O)N2c2ccc(-c3ccc(-n4c(-c5ccccc5)nc5ccccc5c4=O)cc3)cc2)cc1` (centres undefined): the GI50 in the assay with MOLT-4 was 34.5 µM (inactive); in the assay with SR it was 36.4 µM (inactive); in the assay on U-251, 73.3 µM (inactive); in the assay on SK-OV-3, > 100 µM (inactive); in the assay on SF-268 it was 33.8 µM (inactive); in the assay on SF-295, > 100 µM (inactive). Also, the GI50 with MDA-N was 80 µM (inactive); in the assay with SNB-19, > 100 µM (inactive); in the assay on K562, 64.7 µM (inactive); in the assay with OVCAR-5, > 100 µM (inactive); with COLO 205 it was 81.8 µM (inactive); in the assay with NCI-H522 it was 37.2 µM (inactive). The GI50 with A498 is > 100 µM (inactive); with SN12C, 86.5 µM (inactive); in the assay on HCT-15, 62.5 µM; in the assay on NCI-H460 it was 59.6 µM (inactive); in the assay with ACHN it was > 100 µM (inactive); in the assay on T47D, 24.8 µM (inactive). Further, the figures for the GI50 with HOP-92 and in the assay on MDA-MB-231 were 35 µM (inactive) and 92.9 µM (inactive), respectively.
In the case of `CNC(=O)N(C)C(=O)c1ccccc1C(=O)N(C)C(=O)NC`, the GI50 with MOLT-4, in the assay with SR, in the assay on U-251, with SK-OV-3, with SF-268 and in the assay on SF-295 was > 10 µM (inactive) in each case. The GI50 in the assay on MDA-N, in the assay with SNB-19, in the assay on K562, with OVCAR-5, with COLO 205 and with NCI-H522 was > 10 µM (inactive) in each case. The GI50 with A498 was > 10 µM (inactive); in the assay with SN12C it was > 10 µM (inactive); with HCT-15, more than 10 µM; with NCI-H460, > 10 µM (inactive); with ACHN, > 10 µM (inactive); in the assay on T47D, > 10 µM (inactive). Further, the GI50 with HOP-92 and in the assay with MDA-MB-231 was > 10 µM (inactive) in each case.
In the case of `O=C(CCc1cc(O)cc(O)c1)NCCc1cc(O)cc(OCc2ccccc2)c1`, the GI50 is 28.9 µM (inactive) in the assay with MOLT-4; 30.5 µM (inactive) in the assay on SR; 41.8 µM (inactive) in the assay on U-251; 59.4 µM (inactive) with SK-OV-3; 29.6 µM (inactive) in the assay with SF-268; 32.9 µM (inactive) in the assay on SF-295. The GI50 was 27.5 µM (inactive) in the assay with MDA-N; 26.4 µM (inactive) with SNB-19; 36.1 µM (inactive) in the assay with K562; 63 µM (inactive) in the assay with OVCAR-5; 48.3 µM (inactive) in the assay on COLO 205; 36.5 µM (inactive) in the assay on NCI-H522. The GI50 with A498 is > 100 µM (inactive); with SN12C, 39.3 µM (inactive); in the assay on HCT-15 it was 68.9 µM; in the assay on NCI-H460 it was 20.4 µM (inactive); in the assay on ACHN, 24.7 µM (inactive); in the assay on T47D, 34 µM (inactive). The GI50 was 53.1 µM (inactive) with HOP-92 and 29.8 µM (inactive) in the assay with MDA-MB-231.
As for `Clc1ccc2c(NCCCCCCNc3ccnc4cc(Cl)ccc34)ccnc2c1`, the GI50 in the assay on MOLT-4 was 2.45 µM (inactive); in the assay on SR it was 1.59 µM (inactive); with U-251, 2.45 µM (inactive); in the assay with SK-OV-3, 5.22 µM (inactive); with SF-268, 5.35 µM (inactive); in the assay on SF-295 it was 2.11 µM (inactive). Also, the GI50 with MDA-N is 2.46 µM (inactive); with SNB-19 it was 3.8 µM (inactive); in the assay with K562, 1.72 µM (inactive); with OVCAR-5, 7.05 µM (inactive); with COLO 205, 1.82 µM (inactive); in the assay on NCI-H522, 1.69 µM (inactive). In addition, the GI50 in the assay with A498 was 11.2 µM (inactive); with SN12C, 2.74 µM (inactive); in the assay on HCT-15, 2.88 µM; in the assay with NCI-H460, 2.25 µM (inactive); in the assay on ACHN it was 3.67 µM (inactive); in the assay with T47D, 2.08 µM (inactive). Besides, the GI50 in the assay on HOP-92 is 2 µM (inactive); in the assay with MDA-MB-231 it was 2.22 µM (inactive).
`O=C(/C=C/c1ccc(O)c(O)c1)OCCCOC(=O)/C=C/c1ccc(O)c(O)c1`: the GI50 with MOLT-4 was 10.9 µM (inactive); with SR, 17.2 µM (inactive); in the assay with U-251, 23.5 µM (inactive); in the assay on SK-OV-3, 27.2 µM (inactive); in the assay with SF-268, 23.9 µM (inactive); with SF-295, 18 µM (inactive). For the same compound, the GI50 in the assay on MDA-N was 17.5 µM (inactive); with SNB-19, 31.4 µM (inactive); with K562, 22.3 µM (inactive); with OVCAR-5 it was 27.4 µM (inactive); in the assay with COLO 205, 28.9 µM (inactive); in the assay with NCI-H522, 11.6 µM (inactive). Also, the GI50 with A498 was 52.5 µM (inactive); with SN12C, 28.1 µM (inactive); in the assay with HCT-15 it was 14 µM; with NCI-H460 it was 21.8 µM (inactive); in the assay with ACHN it was 16.2 µM (inactive); with T47D, 35.6 µM (inactive). Besides, the GI50 in the assay on HOP-92 is 20 µM (inactive); in the assay on MDA-MB-231, 62.1 µM (inactive).
For the compound `Cc1cc(O)c(C(C)C)cc1C1(c2cc(C(C)C)c(O)cc2C)OC(=O)c2ccccc21`, the GI50 in the assay on MOLT-4 is 1.34 µM (inactive); with SR, 1.36 µM (inactive); in the assay with U-251, 1.97 µM (inactive); in the assay with SK-OV-3 it was 4.47 µM (inactive); with SF-268 it was 2.1 µM (inactive); in the assay on SF-295 it was 1.78 µM (inactive). For the same compound, the GI50 with MDA-N was 1.67 µM (inactive); in the assay with SNB-19 it was 3.15 µM (inactive); in the assay with K562 it was 1.19 µM (inactive); in the assay on OVCAR-5 it was 2.38 µM (inactive); with COLO 205, 1.93 µM (inactive); with NCI-H522 it was 1.84 µM (inactive). In addition, the GI50 is 2.43 µM (inactive) in the assay with A498; 2.02 µM (inactive) in the assay on SN12C; 2 µM with HCT-15; 1.92 µM (inactive) in the assay with NCI-H460; 2.62 µM (inactive) in the assay on ACHN; 1.85 µM (inactive) with T47D. For the same compound, the GI50 is 1.92 µM (inactive) in the assay on HOP-92 and 1.91 µM (inactive) with MDA-MB-231.
Consider `CCOC1OCCCC1Br` (centres undefined), for which the GI50 in the assay on MOLT-4, in the assay on SR, in the assay with SK-OV-3, in the assay on SF-268, in the assay with SF-295 and in the assay with MDA-N was > 100 µM (inactive) in each case. For the same compound, the GI50 in the assay on SNB-19, in the assay on K562, in the assay with OVCAR-5, in the assay on COLO 205, in the assay on NCI-H522 and in the assay on A498 was > 100 µM (inactive) in each case. The GI50 in the assay with SN12C is > 100 µM (inactive); in the assay on HCT-15, more than 100 µM; in the assay with NCI-H460, > 100 µM (inactive); with ACHN it was > 100 µM (inactive); in the assay on T47D it was > 100 µM (inactive); in the assay with HOP-92, > 100 µM (inactive). In the assay with MDA-MB-231, the GI50 is > 100 µM (inactive).
